Laboratory results as given in publication PMC8470881, “Membrane Interactions of Latarcins: Antimicrobial Peptides from Spider Venom” (International Journal of Molecular Sciences, 2021).
Values joined by “and” are separate entries in the source; they are usually repeats but may differ in a detail not shown here. Equal entries are not always repeated.

How the values were obtained:
human red blood cells = experiment: Hemolysis assay; conditions: peptide concentration 256 µg/mL, 30 min, 37 °C
Protocol: A hemolysis assay was performed to determine the activity of latarcins against human red blood cells, allowing us to compare the results to those of previous experiments in which rabbit erythrocytes were used. The activity was determined for each latarcin as a function of increasing concentration, up to a maximum of 256 µg of peptides per mL. […] The percentage hemolysis of the other peptides was determined at the highest tested concentration of 256 µg/mL.
The influence of latarcins on human erythrocytes was determined by using a hemolysis assay modified from previously published methods. Blood was obtained from the blood bank of the local hospital in Karlsruhe and stabilized with citrate phosphate dextrose buffer. Erythrocyte suspension (5 mL) was taken up in Tris buffer (45 mL, 172 mM, pH 7.6) at room temperature, gently mixed, and centrifuged (1500 rpm, 10 min). The supernatant solution was removed, and Tris wash was repeated twice with 45 mL as above. The washed erythrocytes (1 mL) were suspended in 9 mL Tris buffer to make the stock cell suspension, which was then further diluted to 0.25% (v/v) at 37 °C before use. Peptide stock solutions were prepared with 1024 µg/mL in Tris buffer containing 10% DMSO, and serial dilutions were prepared in the range of 512 µg/mL to 2 µg/mL as described previously. For the positive control, Triton X-100 (200 µL of 0.2% v/v) was used, and as the negative control, Tris buffer (200 µL, 172 mM) was used. Erythrocyte stock cell suspension (200 µL) was added to each of the samples and incubated for 30 min at 37 °C with gentle shaking before determining the percentage of hemolysis as described previously.

[1] = ANTS/DPX fluorescence vesicle leakage assay; conditions: vesicle leakage of ANTS/DPX in POPC/POPG (1/1) LUVs, P/L = 1:50, 100 µM lipid, 10 min, 30 °C, pH 7.5
Protocol: The ability of the peptides to induce leakage in large unilamellar vesicles (≈120 nm diameter) of POPC/POPG (1/1) was studied using a fluorescence assay using ANTS/DPX, as described previously.
For the leakage experiments, the buffer in which the vesicles were prepared contained the fluorophore ANTS (12.5 mM), the quencher DPX (45 mM), 50 mM NaCl, and 10 mM HEPES (pH 7.5). Liposomes were prepared by co-dissolving POPC/POPG 1/1 (mol/mol) lipids in CHCl3/MeOH (3/1 v/v), together with 10^−2 mol% Rhod-PE, by which the lipid loss during vesicle preparation (extrusion and gel filtration, see below) could be quantified. The peptide-to-lipid ratio (P/L) is given in mol/mol. The lipid mixture was dried under N2(g) and dried under vacuum for 2–4 h. The obtained thin film was then re-suspended in the buffer, which contained the fluorophore and the quencher, by vigorous vortexing, followed by 10 freeze–thaw cycles. Large unilamellar vesicles (LUV) were obtained by 41-fold extrusion (Avanti Mini Extruder; Avanti Polar Lipids, Alabaster, AL, USA) of the liposomes through a Nuclepore polycarbonate membrane (pore size 100 nm, Whatman-GE Healthcare Europe, Freiburg, Germany) at a temperature 20 °C above the lipid phase transition. […]
The leakage of entrapped ANTS was monitored by fluorescence dequenching of ANTS [18]. Fluorescence measurements were performed in a thermostated cuvette with constant stirring at 30 °C in the elution buffer used for gel filtration on a FluoroMax2 spectrofluorimeter (HORIBA Jobin Yvon, Unterhaching, Germany) by setting the ANTS excitation wavelength to 355 nm and its emission wavelength to 510 nm. Peptide stock solutions in water were prepared, and the peptide concentration was calculated from the weighed amount. […] The fluorescence signal was followed for 10 minutes, and after that time, Triton X-100 was added to completely disrupt the vesicles. The level of 0% leakage corresponded to the fluorescence of the vesicles immediately after their addition, while 100% leakage was the fluorescence value obtained after the addition of Triton X-100.
The synergy of the peptides towards vesicle leakage was investigated by pair-wise combinations of latarcins. The leakage was measured for each peptide alone at P/L = 1/100 and for peptide combinations at P/P/L = 1/1/100. The synergy factor, SF, is calculated according to:SF = L(P1 + P2)/[L(P1) + L(P2)].(1)
Here, L(P1) is the leakage of peptide 1 alone, L(P2) is the leakage of peptide 2 alone, and L(P1 + P2) is the leakage for the mixture of the peptides. […] The SF was determined separately for each batch of samples, and then the individual SF values were averaged.

Row | Substance | % Hemolysis (human red blood cells) | % Leakage [1]
1 | H-GFFGKMKEYFKKFGASFKRRFANLKKRL-NH2 [Ltc5] | 27% | –
2 | H-SWKSMAKKLKEYMEKLKQRA-NH2 [Ltc3a] | 16% | 20%
3 | H-QAFQTFKPDWNKIRYDAMKMQTSLGQMKKRFNL-OH [Ltc6a] | 3% | 50% and 46%
4 | G E TF D K L K E K L K TFYQ K LV E K A ED L K G D L K A K LS-acid [Ltc7] | 2% | 50% and 54%
5 | H-GLKDKFKSMGEKLKQYIQTWKAKF-NH2 [Ltc4a] | 12% | 20% and 22%
